Test system: urinary TGF-β1
Experiment: Urinary TGF-β1 excretion in proteinuric patients, add-on losartan crossover trial on background lisinopril
Assay type: in vivo, human
Conditions: add-on losartan 50 mg/d for 4 weeks on lisinopril 40 mg/d
Procedure: Patients previously administered angiotensin-receptor blockers (ARBs) or with estimated creatinine clearances of less than 30 mumin were excluded. A separate group of 12 healthy volunteers with normal BP, normal albuminuria, and no history of kidney disease or diabetes served as the control group for urinary TGF-β1 levels.
The study was a two-period, crossover, randomized, controlled trial. Seventeen (17) patients were administered a sequence of either losartan, 50 mg/d, for 4 weeks, 2-week washout, and placebo for 4 weeks or placebo for 4 weeks, 2-week washout, and losartan, 50 mg/d, for 4 weeks. […] Twenty-four-hour urine was collected for protein, sodium, urea, creatinine, and urinary TGF-β1 measurement. Because standard therapy for patients with proteinuria and renal failure includes ACE inhibitors, ACE inhibitor therapy was not discontinued in any patient enrolled in the study.
Appropriate corrections for concentrations were made and values were expressed as TGF-β1 in picograms per milligram of creatinine. […] TGF-β expressed as TGF-β in picograms per milligram of creatinine was calculated as follows:
The normality assumption was tested with the Kolmogrov Smirnov statistic, and homogeneity of variances was tested using Lavene's test. […] Data were analyzed by two-way mixed-model analysis of variance with subjects as the random variable and drug or placebo assignment as the fixed variable. […]

CCCCc1nc(Cl)c(CO)n1Cc1ccc(-c2ccccc2-c2nn[nH]n2)cc1 [losartan]
reduction in urinary TGF-β1 levels (95% CI 16 to 55, P=0.017): 38%
urinary TGF-β1 level after losartan (geometric mean, pre-losartan level 13.3 (95% CI 11.4 to 15.5)): 8.2 pg/mg creatinine
